Assay results: ChEMBL document CHEMBL4257529, “Antifungal amphiphilic kanamycins: new life for an old drug” (Medchemcomm, 2018)
Values after ≈ are worked out from the molar mass of the structure shown.

Key:
Format in all cases: functional
Fusarium graminearum [1] = test: Antifungal activity against Fusarium graminearum B4-5A strain B after 48 hrs by microdilution assay
Fusarium graminearum [2] = test: Synergistic antifungal activity against Fusarium graminearum infected in wheat plant assessed as fusarium head blight incidence at 180 mg/L in presence of 0.512 L/ha caramba (reference value: 70%)
Fusarium graminearum [3] = test: Synergistic antifungal activity against Fusarium graminearum infected in wheat plant assessed as contamination of wheat heads and kernels with deoxynivalenol at 360 mg/L in presence of 2.8 ml/L proline 480 SC (reference value: 1.2 ppm)
Fusarium graminearum [4] = test: Antifungal activity against Fusarium graminearum B4-5A strain A after 48 hrs by microdilution assay
Fusarium graminearum [5] = test: Antifungal activity against Fusarium graminearum infected in wheat plant assessed as fusarium head blight incidence at 360 mg/L (reference value: 70%)
Fusarium graminearum [6] = test: Synergistic antifungal activity against Fusarium graminearum B4-5A strain C in presence of fluconazole after 48 hrs by checkerboard method
Fusarium graminearum [7] = test: Antifungal activity against Fusarium graminearum infected in wheat plant assessed as fusarium head blight incidence at 180 mg/L (reference value: 70%)
Fusarium graminearum [8] = test: Synergistic antifungal activity against Fusarium graminearum B4-5A strain A assessed as fluconazole MIC after 48 hrs by microdilution assay
Fusarium graminearum [9] = test: Synergistic antifungal activity against Fusarium graminearum infected in wheat plant assessed as fusarium head blight incidence at 360 mg/L in presence of 0.512 L/ha caramba (reference value: 70%)
Cryptococcus neoformans [10] = test: Antifungal activity against Cryptococcus neoformans H99; conditions: var grubii H99
Fusarium oxysporum = test: Antifungal activity against Fusarium oxysporum
Fusarium graminearum [11] = test: Antifungal activity against Fusarium graminearum infected in wheat plant assessed as fusarium head blight severity at 360 mg/L (reference value: 75%)
Candida albicans [12] = test: Antifungal activity against Candida albicans ATCC 10231
Fusarium graminearum [13] = test: Synergistic antifungal activity against Fusarium graminearum infected in wheat plant assessed as fusarium head blight index at 360 mg/L in presence of 0.438 L/ha prosaro 421 SC (reference value: 53%)
Fusarium graminearum [14] = test: Synergistic antifungal activity against Fusarium graminearum B4-5A strain C assessed as fluconazole MIC after 48 hrs by microdilution assay
Diutina rugosa = test: Antifungal activity against Candida rugosa 95-967
Candida albicans [15] = test: Antifungal activity against Candida albicans 94-2181
Staphylococcus aureus = test: Antibacterial activity against Staphylococcus aureus ATCC 25923
Candida parapsilosis = test: Antifungal activity against sensitive Candida parapsilosis; conditions: Lodderomyces parapsilosis
Fusarium graminearum [16] = test: Synergistic antifungal activity against Fusarium graminearum B4-5A strain B assessed as fluconazole MIC after 48 hrs by microdilution assay
Fusarium graminearum [17] = test: Antifungal activity against Fusarium graminearum B4-5A strain D after 48 hrs by microdilution assay
Fusarium graminearum [18] = test: Synergistic antifungal activity against Fusarium graminearum infected in wheat plant assessed as fusarium head blight severity at 360 mg/L in presence of 0.512 L/ha caramba (reference value: 75%)
Aspergillus flavus = test: Antifungal activity against Aspergillus flavus
Fusarium graminearum [19] = test: Synergistic antifungal activity against Fusarium graminearum B4-5A strain D assessed as fluconazole MIC after 48 hrs by microdilution assay
Fusarium graminearum [20] = test: Antifungal activity against Fusarium graminearum B4-5A strain C after 48 hrs by microdilution assay
Fusarium graminearum [21] = test: Antifungal activity against Fusarium graminearum infected in wheat plant assessed as spikelet curling at 360 mg/L (reference value: 51.4%)
Fusarium graminearum [22] = test: Synergistic antifungal activity against Fusarium graminearum infected in wheat plant assessed as spikelet curling at 360 mg/L in presence of 8 ml/L pyraclostrobin (reference value: 51.4%)
Kluyveromyces marxianus = test: Antifungal activity against Candida pseudotropicalis YOGI
Fusarium graminearum [23] = test: Synergistic antifungal activity against Fusarium graminearum infected in wheat plant assessed as spikelet curling at 360 mg/L in presence of 4 ml/L pyraclostrobin (reference value: 51.4%)
Fusarium graminearum [24] = test: Synergistic antifungal activity against Fusarium graminearum B4-5A strain B in presence of fluconazole after 48 hrs by checkerboard method
Fusarium graminearum [25] = test: Antifungal activity against Fusarium graminearum B4-5A strain E after 48 hrs by microdilution assay
Fusarium graminearum [26] = test: Synergistic antifungal activity against Fusarium graminearum infected in wheat plant assessed as fusarium head blight index at 180 mg/L in presence of 0.438 L/ha prosaro 421 SC (reference value: 53%)
Micrococcus luteus = test: Antibacterial activity against Micrococcus luteus ATCC 10240
Fusarium graminearum [27] = test: Synergistic antifungal activity against Fusarium graminearum infected in wheat plant assessed as fusarium head blight severity at 180 mg/L in presence of 0.438 L/ha prosaro 421 SC (reference value: 75%)
Fusarium graminearum [28] = test: Synergistic antifungal activity against Fusarium graminearum B4-5A strain E in presence of fluconazole after 48 hrs by microdilution assay
Cryptococcus neoformans [29] = test: Antifungal activity against Cryptococcus neoformans 94-2586
Fusarium graminearum [30] = test: Synergistic antifungal activity against Fusarium graminearum B4-5A strain E in presence of fluconazole after 48 hrs by checkerboard method
Fusarium graminearum [31] = test: Antifungal activity against Fusarium graminearum infected in wheat plant assessed as fusarium head blight severity at 180 mg/L (reference value: 75%)
Fusarium graminearum [32] = test: Synergistic antifungal activity against Fusarium graminearum infected in wheat plant assessed as fusarium head blight severity at 360 mg/L in presence of 0.438 L/ha prosaro 421 SC (reference value: 75%)
Fusarium graminearum [33] = test: Antifungal activity against Fusarium graminearum infected in wheat plant assessed as fusarium head blight index at 180 mg/L (reference value: 53%)
Candida albicans [34] = test: Antifungal activity against Candida albicans B-311
Fusarium graminearum [35] = test: Synergistic antifungal activity against Fusarium graminearum B4-5A strain D in presence of fluconazole after 48 hrs by microdilution assay
Fusarium graminearum [36] = test: Synergistic antifungal activity against Fusarium graminearum B4-5A strain A in presence of fluconazole after 48 hrs by checkerboard method
Fusarium graminearum [37] = test: Antifungal activity against Fusarium graminearum infected in wheat plant assessed as contamination of wheat heads and kernels with deoxynivalenol at 360 mg/L (reference value: 1.2 ppm)
Fusarium graminearum [38] = test: Synergistic antifungal activity against Fusarium graminearum B4-5A strain B in presence of fluconazole after 48 hrs by microdilution assay
Clavispora lusitaniae = test: Antifungal activity against Candida lusitaniae 95-767
Fusarium graminearum [39] = test: Synergistic antifungal activity against Fusarium graminearum B4-5A strain A in presence of fluconazole after 48 hrs by microdilution assay
Aspergillus niger = test: Antifungal activity against Aspergillus niger
Escherichia coli = test: Antibacterial activity against Escherichia coli TG1
Fusarium graminearum [40] = test: Synergistic antifungal activity against Fusarium graminearum infected in wheat plant assessed as fusarium head blight incidence at 360 mg/L in presence of 0.438 L/ha prosaro 421 SC (reference value: 70%)

Compound: CCCCCCCCS(=O)(=O)OC[C@H]1O[C@H](O[C@@H]2[C@@H](O)[C@H](O[C@H]3O[C@H](CN)[C@@H](O)[C@H](O)[C@H]3O)[C@@H](N)C[C@H]2N)[C@H](O)[C@@H](N)[C@@H]1O
- MIC (Fusarium graminearum [1]): 16 µg/mL (≈ 24.2 µM)
- Activity (Fusarium graminearum [2]): 15%
- Activity (Fusarium graminearum [3]): 0.3 ppm
- MIC (Fusarium graminearum [4]): 16 µg/mL (≈ 24.2 µM)
- Activity (Fusarium graminearum [5]): 14%
- fractional inhibitory concentration index (FICI) (Fusarium graminearum [6]): 0.37
- Activity (Fusarium graminearum [7]): 15%
- MIC (Fusarium graminearum [8]): 25 µg/mL
- Activity (Fusarium graminearum [9]): 13%
- MIC (Cryptococcus neoformans [10]): 3.9 to 7.8 µg/mL (≈ 5.9 to 11.8 µM)
- MIC (Fusarium oxysporum): 31.3 µg/mL (≈ 47.4 µM)
- Activity (Fusarium graminearum [11]): 62%
- MIC (Candida albicans [12]): 15.6 µg/mL (≈ 23.6 µM)
- Activity_index (Fusarium graminearum [13]): 5%
- MIC (Fusarium graminearum [14]): 0.25 µg/mL
- MIC (Diutina rugosa): 15.6 µg/mL (≈ 23.6 µM)
- MIC (Candida albicans [15]): > 7.8 µg/mL
- MIC (Staphylococcus aureus): 250 µg/mL (≈ 378 µM)
- MIC (Candida parapsilosis): 15.6 µg/mL (≈ 23.6 µM)
- MIC (Fusarium graminearum [16]): 6.25 µg/mL
- MIC (Fusarium graminearum [17]): 16 µg/mL (≈ 24.2 µM)
- Activity (Fusarium graminearum [18]): 61%
- MIC (Aspergillus flavus): 300 µg/mL (≈ 454 µM)
- MIC (Fusarium graminearum [19]): 0.195 µg/mL
- MIC (Fusarium graminearum [20]): 16 µg/mL (≈ 24.2 µM)
- Activity (Fusarium graminearum [21]): 34.7%
- Activity (Fusarium graminearum [22]): 1.5%
- MIC (Kluyveromyces marxianus): 15.6 µg/mL (≈ 23.6 µM)
- Activity (Fusarium graminearum [23]): 4.7%
- fractional inhibitory concentration index (FICI) (Fusarium graminearum [24]): 0.5
- MIC (Fusarium graminearum [25]): 16 µg/mL (≈ 24.2 µM)
- Activity_index (Fusarium graminearum [26]): 6%
- MIC (Micrococcus luteus): 62.5 µg/mL (≈ 94.6 µM)
- Activity (Fusarium graminearum [27]): 55%
- MIC (Fusarium graminearum [28]): 4 µg/mL
- MIC (Cryptococcus neoformans [29]): 3.9 to 7.8 µg/mL (≈ 5.9 to 11.8 µM)
- fractional inhibitory concentration index (FICI) (Fusarium graminearum [30]): 0.7
- Activity (Fusarium graminearum [31]): 60%
- Activity (Fusarium graminearum [32]): 54%
- Activity_index (Fusarium graminearum [33]): 9%
- MIC (Candida albicans [34]): > 7.8 µg/mL
- MIC (Fusarium graminearum [35]): 8 µg/mL
- fractional inhibitory concentration index (FICI) (Fusarium graminearum [36]): 0.37
- Activity (Fusarium graminearum [37]): 1.4 ppm
- MIC (Fusarium graminearum [38]): 4 µg/mL
- MIC (Clavispora lusitaniae): > 7.8 µg/mL
- MIC (Fusarium graminearum [39]): 4 µg/mL
- MIC (Aspergillus niger): > 150 µg/mL
- MIC (Escherichia coli): 125 to 250 µg/mL (≈ 189 to 378 µM)
- Activity (Fusarium graminearum [40]): 10%
